Laboratory results reported in PubChem BioAssay (NCI).
Where “and” joins values, the source holds several entries; their conditions need not be identical. Identical values can stand only once.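 Values below derive from 48-hour exposures of cells grown in 96-well plates, with endpoints linearly interpolated between the two concentrations bracketing the appropriate inhibition level. Here, GI50 denotes the concentration required for 50% inhibition of growth. TGI denotes the concentration required for complete inhibition of growth.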 Where a SMILES comes first, the peptide text is derived from it.

Experiments:
Assay in all cases: NCI anticancer screen, dose series, 48 h
[1] = system: LOX IMVI melanoma
[2] = system: RPMI-8226 leukemia
[3] = system: RXF 393 renal
[4] = system: COLO 205 colon
[5] = system: HT29 colon
[6] = system: OVCAR-4 ovarian
[7] = system: HL-60(TB) leukemia
[8] = system: MDA-MB-435
[9] = system: SK-OV-3 ovarian
[10] = system: TK-10 renal

Structure (SMILES)	TGI [1] [µM]	TGI [2] [µM]	TGI [3] [µM]	TGI [4] [µM]	TGI [5] [µM]	TGI [6]	TGI [7] [µM]	TGI [8] [µM]	TGI [9] [µM]	TGI [10] [µM]	GI50 [1] [µM]	GI50 [2] [µM]	GI50 [3] [µM]	GI50 [4] [µM]	GI50 [5] [µM]	GI50 [6] [µM]	GI50 [7] [µM]	GI50 [8] [µM]	GI50 [9] [µM]	GI50 [10] [µM]
NCc1ccc(-c2ccc(-c3ccc(-c4ccc(CN)s4)s3)s2)s1	> 100	> 100	> 100	> 100	> 100	> 100 µM	> 100	> 100	> 100	> 100										
COC(=O)c1ccccc1C1CN=NC12Cc1ccc3ccccc3c1C2=O (stereo not drawn)	> 100	> 100	> 100	> 100		> 100 µM	> 100	> 100		> 100										
CCOC(=O)CC(=O)NC1CC2CCC1(C)C2(C)C (stereo not drawn)	> 100	> 100	> 100	> 100	> 100	> 100 µM	> 100	> 100	> 100	> 100										
CC(=O)OCC1OC(On2ccccc2=S)C(OC(C)=O)C(OC(C)=O)C1OC(C)=O (stereo not drawn)	> 100		> 100	> 100	> 100	> 100 µM	> 100	> 100	> 100	> 100										
Cc1ccc(S(=O)ON2CCC(C(=O)O)(c3ccccc3)CC2)cc1 (stereo not drawn)	> 100	> 100	> 100	> 100	> 100	> 100 µM	> 100	> 100	> 100	> 100										
CCC1(C)C=Cc2c(cc(OC)c3c(=O)c4ccccc4n(C)c23)O1 (stereo not drawn)	> 10	> 10	5.52	> 10	> 10	> 10 µM		> 10	> 10	> 10										
CCOC(=O)c1nc2cc(N3CCOCC3)c(F)cc2[nH]c1=O		> 100	> 100	> 100	> 100	> 100 µM	> 100	> 100	> 100	> 100										
O=C(NN=C1CCN(Cc2ccccc2)CC1)C(O)(c1ccccc1)c1ccccc1	> 100	> 100	> 100	> 100	> 100	> 100 µM	> 100	> 100	> 100	> 100										
CCN(CC)CCn1c(C(C)(C)C)nc2ccccc21		> 100	> 100	> 100	> 100	> 100 µM	> 100		> 100	> 100										
NC(N)=NCCCC(N=c1c2ccccc2n(O)c2ccccc12)C(=O)O (stereo not drawn)	> 100	75.7		> 100		> 100 µM	58.5		> 100	> 100										
CCOC(=O)CN1CCNCCN(CC(=O)OCC)CCNCC1	> 100	> 100	> 100	> 100	> 100	> 100 µM	> 100	> 100	> 100	> 100										
CSc1ccc2c(cc1=O)[C@@H](NC(C)=O)CCc1cc(O)c(O)c(O)c1-2	> 100	> 100	> 100	> 100	29.2	35.5 µM	> 100	29.9	> 100	34.6										
CCOC(=O)c1c(C)n(Cc2ccccc2)c(=O)c2ccccc2c(=O)c2c(=O)ccc(=O)c1=2	53.5	67.3	40.7	> 100	> 100	> 100 µM	> 100	> 100	> 100	54										
COc1c(CC=C(C)C)c(O)c(C(CC(C)C)c2c(O)c(C(C)=O)c(O)c3c2OC(C(C)(C)O)C3)c(O)c1C(C)=O (stereo not drawn)	> 12.5		8.56	> 12.5	> 12.5	> 12.5 µM	6.57	> 12.5												
CN1CCCN2CCN(C)CCN(CC1)CC2	> 100	> 100	> 100	> 100	> 100	> 100 µM	> 100	> 100	> 100	> 100										
CCOC(=O)C1C(=O)CC(O)(OCC)C(C(=O)OCC)C1c1ccc(OC)cc1 (stereo not drawn)	> 100		> 100	> 100	> 100	> 100 µM	> 100	> 100		> 100										
Cc1ccc(-c2c(C#N)c(-c3ccc(Cl)cc3)c(C#N)c(=O)n2NS(=O)(=O)c2ccccc2)cc1	> 100	51.6	> 100	> 100	> 100	> 100 µM	> 100	> 100	> 100	> 100										
Cn1cc(C(=O)c2nccc3c2cnc2ccccc23)ccc1=O	> 100	> 100	8.62	> 100	> 100	> 100 µM	> 100	> 100	> 100	> 100										
CCN1CC2=C(N=c3s/c(=C\c4ccc(Cl)cc4)c(=O)n3C2c2ccc(Cl)cc2)/C(=C/c2ccc(Cl)cc2)C1 (stereo not drawn)	> 100	> 100	15.4	> 100	> 100	> 100 µM	> 100	> 100	> 100	62.5										
O=C(O)CC(C(=O)O)c1ccccc1[N+](=O)[O-] (stereo not drawn)	> 100	> 100	> 100	> 100	> 100	> 100 µM	> 100	> 100	> 100	> 100										
Cc1ccc(/C=C2\CN(C)CC3=C2OC(N)=C(C#N)C3c2ccc(C)cc2)cc1 (stereo not drawn)	27.2	> 48.7	28.3	> 69.3	34.2	34 µM	> 100	34.7	35.3	> 80.8										
CCN(CC)C(=S)SS(=O)(=O)c1ccccc1C(=O)O	> 100	> 100	> 100	> 100	> 100	> 100 µM	> 42	> 100	> 100	> 100										
COC(CN(C)C(=O)C(C)NC(=O)c1ccccc1)OC (stereo not drawn)		> 100	> 100	> 100	> 100	> 100 µM		> 100	> 100	> 100										

Structure (SMILES)	TGI [1] [µM]	TGI [2] [µM]	TGI [3] [µM]	TGI [4] [µM]	TGI [5] [µM]	TGI [6]	TGI [7] [µM]	TGI [8] [µM]	TGI [9] [µM]	TGI [10] [µM]	GI50 [1] [µM]	GI50 [2] [µM]	GI50 [3] [µM]	GI50 [4] [µM]	GI50 [5] [µM]	GI50 [6] [µM]	GI50 [7] [µM]	GI50 [8] [µM]	GI50 [9] [µM]	GI50 [10] [µM]
Cc1ccc2c(c1)SSSSS2	34.4		39	97.9	70.6	37.2 µM	42.2	38.8	39.8	37.9										
CCc1ccc(-c2nnc(COc3ccc(-c4nc5ccc(C)cc5[nH]4)cc3OC)o2)cc1	4.25	5.75	3.29	96	> 100	3.53 µM	4.26	6.97	11.1	5.61	1.98	2.26	1.75	8.39	3.66	1.74	2.01	2.51	3.29	2.72
CC1C(c2ccc(F)cc2)c2cc3c(cc2OC1N1CCCC1)OCO3 (stereo not drawn)	> 100			> 100	> 100			> 100		> 100										
CC(=O)/C(C=Nc1c(C)n(C)n(-c2ccccc2)c1=O)=C(/C)O	> 100	> 100	> 100	> 100		> 100 µM	> 100	> 100	> 100	> 100										
CCCCCC(CN1CCOCC1)C(=O)/C=C/c1ccccc1 (stereo not drawn)	2.67	9.03	3.47	13.9	10.3	8.19 µM	5.42		11.8											
O=C(Cn1c(=O)ccn(C2OC(CO)C(O)C2F)c1=O)c1ccc(F)cc1 (stereo not drawn)	> 100	> 100	> 100	> 100	> 100		> 100	> 100		> 100										
CC1=C2C(O)C(C(C)C(=O)NCC(C)C)CCC2(C)C=CC1=O (stereo not drawn)	> 100	> 100	> 100	> 100	> 100	> 100 µM	> 100													
CSC(SC)=C1CC(=O)Nc2ccccc2C1=O	32.5		52.8	> 100	> 100	> 100 µM	> 100	> 100	> 100	> 100										
C[C@]12CC[C@@H]3c4ccc(O)cc4CC[C@H]3[C@@H]1C/C(=C\c1ccc([N+](=O)[O-])cc1)C2=O	> 100	> 100	50.4	> 100	37.2	> 100 µM		> 100	> 100	> 100										
O=c1[nH]c2ccc(C(F)(F)F)cc2nc1-c1ccccc1	> 100	> 100	> 100	> 100	> 100		> 100	> 100		> 100										
CCOC(=O)C1(C(=O)OCC)C[C@]23OCCC(=O)[C@H]2[C@H]2C(=O)OC(C)(C)O[C@]23C1	> 100	> 100		> 100	> 100	> 100 µM	> 100	> 100		> 100										
CC(=O)ON(OC(C)=O)c1ccc(C)cc1		> 100	> 100	> 100	> 100	> 100 µM		> 100	> 100	> 100										
Cc1[nH]c2ncn3nc(C(Cl)(Cl)Cl)nc3c2c1Cc1ccccc1		> 100	> 100	> 100	> 100	> 100 µM	> 100	> 100	> 100	> 100										
O=c1c(O)c(-c2ccc(O)cc2O)oc2cc(O)cc(O)c12	> 100			> 100	> 100	> 100 µM	> 100	> 100		> 100										
NC(=O)NC(=O)c1cnccn1	> 100	> 100	> 100			> 100 µM		> 100	> 100	> 100										
CC1NC(=O)CNC(=O)CNC(=O)C(Cc2ccc(O)cc2)NC(=O)C(C(C)C)NC(=O)C(C)NC1=O (stereo not drawn) (cyclo(GGAAVY); configuration not given here)	> 100	> 100	> 100	> 100	> 100	> 100 µM and 22.7 µM	> 100		> 100				> 100			> 100				
COc1ccc(/C=C2\C=Cc3ccccc32)cc1OC	> 100		> 100	> 100	> 100	> 100 µM	69.5	> 100	> 100	> 100										
CC(C)=CCC[C@]1(C)CC[C@]2(C)C3CCC(=C(C)C)[C@@H](CCCO)[C@]3(C)CC[C@@]2(C)C1 (stereo partly drawn)		> 100		> 100	> 100	> 100 µM	84.3	> 100	> 100	44.3										
c1ccc(COc2ccc(CC3SCCCS3)cc2)cc1	> 100	> 100		> 100	> 100	> 100 µM	> 100	> 100		> 100										
Cc1cc(-c2ccc(C(=O)O)[nH]2)on1		> 100	> 100	> 100	> 100	> 100 µM		> 100	> 100	> 100										
CN(C)CCCNc1c(O)c2c(c(O)c1Cl)C(=O)C=CC2=O	3.13			3.07	4.27	2.82 µM		4.33	> 10	> 10										
Cn1c(=O)oc2cc(C(=O)CSC(=S)N3CCCCCC3)ccc21		> 100	> 100	> 100	36.7	> 100 µM	> 100	> 100	> 100	> 100										
